Results reported in ChEMBL document CHEMBL1201862, “PubChem BioAssay data set” (2004).
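Five concentrations, 48 hours, 96-well plates. GI50: concentration for 50% inhibition of growth.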 The source made the active and inactive calls. No stated cut-off is given here; in the data, active = GI50 up to about 1.1 µM and inactive = higher.

How the values were obtained:
Assay in all cases: growth of human tumour cells (NCI), 48 h
CCRF-CEM = test system: CCRF-CEM
SR = test system: SR
CAKI-1 = test system: CAKI-1
HOP-92 = test system: HOP-92
786-0 = test system: 786-0
HCT-15 = test system: HCT-15
HOP-62 = test system: HOP-62
MOLT-4 = test system: MOLT-4
SK-MEL-28 = test system: SK-MEL-28
RXF 393 = test system: RXF 393
HCC 2998 = test system: HCC 2998
UO-31 = test system: UO-31
SNB-19 = test system: SNB-19
UACC-62 = test system: UACC-62
HCT-116 = test system: HCT-116
SK-OV-3 = test system: SK-OV-3
SN12C = test system: SN12C
SF-295 = test system: SF-295
A549 = test system: A549
SW-620 = test system: SW-620
A498 = test system: A498
U-251 = test system: U-251
ACHN = test system: ACHN
BT-549 = test system: BT-549
RPMI-8226 = test system: RPMI-8226
IGROV-1 = test system: IGROV-1
NCI/ADR-RES = test system: NCI/ADR-RES
OVCAR-8 = test system: OVCAR-8
MDA-MB-231 = test system: MDA-MB-231
SK-MEL-2 = test system: SK-MEL-2
MDA-N = test system: MDA-N
NCI-H23 = test system: NCI-H23
MDA-MB-435 = test system: MDA-MB-435
Hs-578T = test system: Hs-578T
TK-10 = test system: TK-10
NCI-H460 = test system: NCI-H460
UACC-257 = test system: UACC-257
DU-145 = test system: DU-145
OVCAR-4 = test system: OVCAR-4
SNB-75 = test system: SNB-75
NCI-H226 = test system: NCI-H226
COLO 205 = test system: COLO 205
OVCAR-5 = test system: OVCAR-5
SF-539 = test system: SF-539
PC-3 = test system: PC-3
K562 = test system: K562
LOX IMVI = test system: LOX IMVI
SK-MEL-5 = test system: SK-MEL-5
SF-268 = test system: SF-268
OVCAR-3 = test system: OVCAR-3
MCF7 = test system: MCF7
EKVX = test system: EKVX
HT-29 = test system: HT-29
KM12 = test system: KM12
Malme-3M = test system: Malme-3M
M14 = test system: M14
NCI-H522 = test system: NCI-H522

## CC(=O)NCCc1c(-c2[nH]c3ccccc3c2CCNC(C)=O)[nH]c2ccccc12
CCRF-CEM
  GI50: > 100 µM (inactive)
SR
  GI50: > 100 µM (inactive)
CAKI-1
  GI50: > 100 µM (inactive)
HOP-92
  GI50: 22.2 µM (inactive)
786-0
  GI50: 35.7 µM (inactive)
HCT-15
  GI50: > 100 µM
HOP-62
  GI50: 85.7 µM (inactive)
MOLT-4
  GI50: > 100 µM (inactive)
SK-MEL-28
  GI50: > 100 µM (inactive)
RXF 393
  GI50: > 100 µM (inactive)
HCC 2998
  GI50: > 100 µM (inactive)
UO-31
  GI50: > 100 µM (inactive)
SNB-19
  GI50: > 100 µM (inactive)
UACC-62
  GI50: > 100 µM (inactive)
HCT-116
  GI50: > 100 µM (inactive)
SK-OV-3
  GI50: 51.2 µM (inactive)
SN12C
  GI50: > 100 µM (inactive)
SF-295
  GI50: > 100 µM (inactive)
A549
  GI50: > 100 µM (inactive)
SW-620
  GI50: > 100 µM (inactive)
A498
  GI50: 74.8 µM (inactive)
U-251
  GI50: > 100 µM (inactive)
ACHN
  GI50: 66.7 µM (inactive)
BT-549
  GI50: > 100 µM (inactive)
RPMI-8226
  GI50: > 100 µM (inactive)
IGROV-1
  GI50: 24.6 µM (inactive)
NCI/ADR-RES
  GI50: 87.1 µM (inactive)
OVCAR-8
  GI50: 78.2 µM (inactive)
MDA-MB-231
  GI50: 82.4 µM (inactive)
SK-MEL-2
  GI50: > 100 µM (inactive)
MDA-N
  GI50: > 100 µM (inactive)
NCI-H23
  GI50: > 100 µM (inactive)
MDA-MB-435
  GI50: > 100 µM (inactive)
Hs-578T
  GI50: 40.1 µM (inactive)
TK-10
  GI50: 92.7 µM (inactive)
NCI-H460
  GI50: 42.2 µM (inactive)
UACC-257
  GI50: > 100 µM (inactive)
DU-145
  GI50: > 100 µM (inactive)
OVCAR-4
  GI50: 49.2 µM (inactive)
SNB-75
  GI50: 47.6 µM (inactive)
NCI-H226
  GI50: > 100 µM (inactive)
COLO 205
  GI50: > 100 µM (inactive)
OVCAR-5
  GI50: 66.7 µM (inactive)
SF-539
  GI50: 74.5 µM (inactive)
PC-3
  GI50: > 100 µM (inactive)
K562
  GI50: > 100 µM (inactive)
LOX IMVI
  GI50: > 100 µM (inactive)
SK-MEL-5
  GI50: > 100 µM (inactive)
SF-268
  GI50: > 100 µM (inactive)
OVCAR-3
  GI50: > 100 µM (inactive)
MCF7
  GI50: > 100 µM (inactive)
EKVX
  GI50: > 100 µM (inactive)
HT-29
  GI50: > 100 µM (inactive)

## COC(=O)C1CC(C=O)=C(SC)N1 (centres undefined)
KM12
  GI50: > 50 µM (inactive)
CAKI-1
  GI50: > 50 µM (inactive)
HOP-92
  GI50: > 50 µM (inactive)
786-0
  GI50: > 50 µM (inactive)
HCT-15
  GI50: > 50 µM
HOP-62
  GI50: > 50 µM (inactive)
Malme-3M
  GI50: > 50 µM (inactive)
MOLT-4
  GI50: > 50 µM (inactive)
SK-MEL-28
  GI50: > 50 µM (inactive)
RXF 393
  GI50: > 50 µM (inactive)
HCC 2998
  GI50: > 50 µM (inactive)
UO-31
  GI50: > 50 µM (inactive)
M14
  GI50: > 50 µM (inactive)
SNB-19
  GI50: > 50 µM (inactive)
UACC-62
  GI50: > 50 µM (inactive)
HCT-116
  GI50: > 50 µM (inactive)
SK-OV-3
  GI50: > 50 µM (inactive)
SF-295
  GI50: > 50 µM (inactive)
A549
  GI50: > 50 µM (inactive)
SW-620
  GI50: > 50 µM (inactive)
A498
  GI50: > 50 µM (inactive)
U-251
  GI50: > 50 µM (inactive)
ACHN
  GI50: > 50 µM (inactive)
BT-549
  GI50: > 50 µM (inactive)
RPMI-8226
  GI50: > 50 µM (inactive)
IGROV-1
  GI50: > 50 µM (inactive)
NCI/ADR-RES
  GI50: > 50 µM (inactive)
OVCAR-8
  GI50: > 50 µM (inactive)
MDA-MB-231
  GI50: > 50 µM (inactive)
SK-MEL-2
  GI50: > 50 µM (inactive)
MDA-N
  GI50: > 50 µM (inactive)
NCI-H23
  GI50: > 50 µM (inactive)
MDA-MB-435
  GI50: > 50 µM (inactive)
Hs-578T
  GI50: > 50 µM (inactive)
TK-10
  GI50: > 50 µM (inactive)
NCI-H460
  GI50: > 50 µM (inactive)
UACC-257
  GI50: > 50 µM (inactive)
DU-145
  GI50: > 50 µM (inactive)
OVCAR-4
  GI50: > 50 µM (inactive)
SNB-75
  GI50: > 50 µM (inactive)
COLO 205
  GI50: > 50 µM (inactive)
OVCAR-5
  GI50: > 50 µM (inactive)
PC-3
  GI50: > 50 µM (inactive)
K562
  GI50: > 50 µM (inactive)
SK-MEL-5
  GI50: > 50 µM (inactive)
SF-268
  GI50: > 50 µM (inactive)
OVCAR-3
  GI50: > 50 µM (inactive)
MCF7
  GI50: > 50 µM (inactive)
EKVX
  GI50: > 50 µM (inactive)
HT-29
  GI50: > 50 µM (inactive)
NCI-H522
  GI50: > 50 µM (inactive)
